Assay results as given in US10934283B2, “COMT inhibiting methods and compositions” (LIEBER INSTITUTE FOR BRAIN DEVELOPMENT, priority 2015, dated 2021).
Counter-ions that a name gives are not always drawn.

Target: T1, catechol-O-methyltransferase (COMT) (Homo sapiens, UniProt P21964)
T1 construct: M51A variant) was expressed in HEK 293F cells
T1 sequence (P21964 52-271 limits assumed): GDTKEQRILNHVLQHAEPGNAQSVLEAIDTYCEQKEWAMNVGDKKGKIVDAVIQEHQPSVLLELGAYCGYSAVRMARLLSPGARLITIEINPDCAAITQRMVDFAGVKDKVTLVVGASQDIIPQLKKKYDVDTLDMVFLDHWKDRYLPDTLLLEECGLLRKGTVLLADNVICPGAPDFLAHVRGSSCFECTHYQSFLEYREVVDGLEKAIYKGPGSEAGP
Assay: COMT inhibition assay (HTRF, production of SAH from SAM)
Format: biochemical
Conditions: table does not say MB-COMT or S-COMT
Protocol: The ability of compounds to inhibit the activity of catechol-O-methyltransferase (COMT) was determined by a homogenous time-resolved fluorescent (HTRF) assay (Lina et al, 2012; kit from CisBio, Codolet, France). This assay measures the production of S-adenosyl homocysteine (SAH) from the methyl donor S-adenosyl methionine. Recombinant human membrane bound COMT (MB-COMT; M51A variant) was expressed in HEK 293F cells using 293Fectin (Life Technologies, Gent, Belgium) and membranes prepared. The membranes were re-suspended in buffer (20 mM Tris/HCl pH 7; 10 mM glycerol; 2 mM MgCl2; 10 mM NaCl), aliquoted and stored at −80° C. Recombinant human soluble COMT(S-COMT), Val158 variant and a hexa-His tag on the N-terminus, was purified using Ni-NTA chromatography, the His tag removed and stored in buffer as above.
For the human MB-COMT assay, membranes (62 ng/well) were incubated with SAM (20 μM final, CisBio) and dopamine (1.5 μM final; Sigma H8502, Diegem, Belgium) in the presence or absence of varying concentrations (typically 10 concentrations ranging from 10 ? M to 0.1 nM) of compound for 40 min at 37° C. in 384-well microtiter plates (10 ? l per well final volume). The reaction was terminated by the addition of acylation buffer and the amount of SAH produced determined according to manufacturer's instructions. Specific inhibition as that inhibited by a high concentration of tolcapone and all experiments were validated using a control curve to tolcapone.
The human S-COMT assay was performed as above except that 0.15 ng enzyme/well was incubated with SAM ([…]) and dopamine (100 μM final) for 15 min at 37° C. and SAH production determined.
HTRF readings were performed using a Perkin Elmer Envision and results expressed as concentration of SAH produced using a standard curve. Results were analyzed using non-linear regression to the 4-parameter logistic equation and pIC50 (−log 10 concentration of drug which inhibits enzyme activity/SAH production by 50%) determined.

| SMILES | Activity range (pIC50) |
| --- | --- |
| Cc1ccc(-c2nc3sccn3c2CN2CCn3cc(O)c(=O)cc3C2)cc1 [Example 56, 7-hydroxy-2-{[6-(4-methylphenyl)imidazo[2,1-b][1,3]thiazol-5-yl]methyl}-1,2,3,4-tetrahydro-8H-pyrido[1,2-a]pyrazin-8-one] | ++ (two plus signs (++) is associated with a pIC50 of from about 6 to 7) |
| O=c1cc2n(cc1O)CCN(Cc1ccc(Cl)cc1Cl)C2 [Example 57, 7-hydroxy-2-[(2,4-dichlorophenyl)methyl]-1,2,3,4-tetrahydro-8H-pyrido[1,2-a]pyrazin-8-one] | +++ (three plus signs (+++) is associated with a pIC50 of above about 7) |
| O=c1cc2n(cc1O)CCN(Cc1ccccc1Cl)C2 [Example 58, 2-[(2-chlorophenyl)methyl]-7-hydroxy-3,4-dihydro-1H-pyrido[1,2-a]pyrazin-8-one] | +++ (three plus signs (+++) is associated with a pIC50 of above about 7) |
| O=c1cc2n(cc1O)CCN(Cc1c(F)cccc1Cl)C2 [Example 59, 2-[(2-chloro-6-fluoro-phenyl)methyl]-7-hydroxy-3,4-dihydro-1H-pyrido[1,2-a]pyrazin-8-one] | +++ (three plus signs (+++) is associated with a pIC50 of above about 7) |
| O=c1cc2n(cc1O)CCN(Cc1c(Cl)cccc1Cl)C2 [Example 60, 2-[(2,6-dichlorophenyl)methyl]-7-hydroxy-3,4-dihydro-1H-pyrido[1,2-a]pyrazin-8-one] | +++ (three plus signs (+++) is associated with a pIC50 of above about 7) |
| O=c1cc2n(cc1O)CCN(Cc1ccc(F)cc1Cl)C2 [Example 61] | +++ (three plus signs (+++) is associated with a pIC50 of above about 7) |
| O=c1cc2n(cc1O)CCN(Cc1c(F)cccc1F)C2 [Example 62, 2-[(2,6-difluorophenyl)methyl]-7-hydroxy-3,4-dihydro-1H-pyrido[1,2-a]pyrazin-8-one] | +++ (three plus signs (+++) is associated with a pIC50 of above about 7) |
| O=c1cc2n(cc1O)CCN(Cc1ccc(Br)cc1Cl)C2 [Example 63, 2-[(4-bromo-2-chloro-phenyl)methyl]-7-hydroxy-3,4-dihydro-1H-pyrido[1,2-a]pyrazin-8-one hydrochloride] | +++ (three plus signs (+++) is associated with a pIC50 of above about 7) |
| O=c1cc2n(cc1O)CCN(Cc1ccc(C3CC3)cc1Cl)C2 [Example 64, 2-[(2-chloro-4-cyclopropyl-phenyl)methyl]-7-hydroxy-3,4-dihydro-1H-pyrido[1,2-a]pyrazin-8-one hydrochloride] | +++ (three plus signs (+++) is associated with a pIC50 of above about 7) |
| CC1(C)Cn2cc(O)c(=O)cc2CN1Cc1ccccc1Cl [Example 65, 2-[(2-chlorophenyl)methyl]-7-hydroxy-3,3-dimethyl-1,4-dihydropyrido[1,2-a]pyrazin-8-one] | ++ (two plus signs (++) is associated with a pIC50 of from about 6 to 7) |
| O=c1cc2n(cc1O)CCN(Cc1cc([N+](=O)[O-])c(Cl)cc1Cl)C2 [Example 66, 2-[(2,4-dichloro-5-nitro-phenyl)methyl]-7-hydroxy-3,4-dihydro-1H-pyrido[1,2-a]pyrazin-8-one] | +++ (three plus signs (+++) is associated with a pIC50 of above about 7) |
| Cc1ccccc1C(C)N1CCn2cc(O)c(=O)cc2C1 (stereo not drawn) [Example 67, 7-hydroxy-2-[1-(2-methylphenyl)ethyl]-1,2,3,4-tetrahydro-8H-pyrido[1,2-a]pyrazin-8-one] | +++ (three plus signs (+++) is associated with a pIC50 of above about 7) |
| CC(c1ccc(Cl)cc1)N1CCn2cc(O)c(=O)cc2C1 (stereo not drawn) [Example 68, 2-[1-(4-chlorophenyl)ethyl]-7-hydroxy-1,2,3,4-tetrahydro-8H-pyrido[1,2-a]pyrazin-8-one] | ++ (two plus signs (++) is associated with a pIC50 of from about 6 to 7) |
| CC(c1cc(Cl)ccc1Cl)N1CCn2cc(O)c(=O)cc2C1 (stereo not drawn) [Example 69, 2-[1-(2,5-dichlorophenyl)ethyl]-7-hydroxy-1,2,3,4-tetrahydro-8H-pyrido[1,2-a]pyrazin-8-one] | +++ (three plus signs (+++) is associated with a pIC50 of above about 7) |
| CC(c1ccc(C(F)(F)F)cc1)N1CCn2cc(O)c(=O)cc2C1 (stereo not drawn) [Example 70, 7-hydroxy-2-{1-[4-(trifluoromethyl)phenyl]ethyl}-1,2,3,4-tetrahydro-8H-pyrido[1,2-a]pyrazin-8-one] | ++ (two plus signs (++) is associated with a pIC50 of from about 6 to 7) |
| Cc1cccc(C(C)N2CCn3cc(O)c(=O)cc3C2)c1 (stereo not drawn) [Example 71, 7-hydroxy-2-[1-(3-methylphenyl)ethyl]-1,2,3,4-tetrahydro-8H-pyrido[1,2-a]pyrazin-8-one] | ++ (two plus signs (++) is associated with a pIC50 of from about 6 to 7) |
| CC(c1cccc(Cl)c1)N1CCn2cc(O)c(=O)cc2C1 (stereo not drawn) [Example 72, 2-[1-(3-chlorophenyl)ethyl]-7-hydroxy-1,2,3,4-tetrahydro-8H-pyrido[1,2-a]pyrazin-8-one] | ++ (two plus signs (++) is associated with a pIC50 of from about 6 to 7) |
| O=c1cc2n(cc1O)CCN(C1CCc3c(Cl)cccc31)C2 (stereo not drawn) [Example 73, 2-(4-chloro-2,3-dihydro-1H-inden-1-yl)-7-hydroxy-1,2,3,4-tetrahydro-8H-pyrido[1,2-a]pyrazin-8-one] | +++ (three plus signs (+++) is associated with a pIC50 of above about 7) |
| COc1cccc(OC)c1C(C)N1CCn2cc(O)c(=O)cc2C1 (stereo not drawn) [Example 74, 2-[1-(2,6-dimethoxyphenyl)ethyl]-7-hydroxy-1,2,3,4-tetrahydro-8H-pyrido[1,2-a]pyrazin-8-one] | ++ (two plus signs (++) is associated with a pIC50 of from about 6 to 7) |
| CC(c1cc(F)cc(F)c1F)N1CCn2cc(O)c(=O)cc2C1 (stereo not drawn) [Example 75, 7-hydroxy-2-[1-(2,3,5-trifluorophenyl)ethyl]-1,2,3,4-tetrahydro-8H-pyrido[1,2-a]pyrazin-8-one] | +++ (three plus signs (+++) is associated with a pIC50 of above about 7) |
| CC(c1ccccc1Cl)N1CCn2cc(O)c(=O)cc2C1 (stereo not drawn) [Example 76, 2-[1-(2-chlorophenyl)ethyl]-7-hydroxy-1,2,3,4-tetrahydro-8H-pyrido[1,2-a]pyrazin-8-one] | +++ (three plus signs (+++) is associated with a pIC50 of above about 7) |
| CC(c1ccccc1OCc1ccccc1)N1CCn2cc(O)c(=O)cc2C1 (stereo not drawn) [Example 77, 2-{1-[2-(benzyloxy)phenyl]ethyl}-7-hydroxy-1,2,3,4-tetrahydro-8H-pyrido[1,2-a]pyrazin-8-one] | +++ (three plus signs (+++) is associated with a pIC50 of above about 7) |
| CCCCC(c1ccccc1)N1CCn2cc(O)c(=O)cc2C1 (stereo not drawn) [Example 78, 7-hydroxy-2-(1-phenylpentyl)-1,2,3,4-tetrahydro-8H-pyrido[1,2-a]pyrazin-8-one] | +++ (three plus signs (+++) is associated with a pIC50 of above about 7) |
| O=c1cc2n(cc1O)CCN(C1CCc3cccc(F)c31)C2 (stereo not drawn) [Example 79, 2-(7-fluoro-2,3-dihydro-1H-inden-1-yl)-7-hydroxy-1,2,3,4-tetrahydro-8H-pyrido[1,2-a]pyrazin-8-one] | +++ (three plus signs (+++) is associated with a pIC50 of above about 7) |
